# Source: US4248863A, “Antibiotics saframycins A, B, C, D and E and process for producing the same” (priority 1977, dated 1981)
# Read-outs that look alike come from different tables or passages of the source.
# Tests used:
# [1] = test system: Corynebacterium dephtheriae; assay: Antimicrobial spectrum, MIC (Table 4); format: cell-based; details: 1% glucose nutrient agar, 37° C., 24 or 48 hours
# Bacillus cereus = assay: Antimicrobial spectrum, MIC (Table 4); format: cell-based; details: 1% glucose nutrient agar, 37° C., 24 or 48 hours
# Staphylococcus citreus = assay: Antimicrobial spectrum, MIC (Table 4); format: cell-based; details: 1% glucose nutrient agar, 37° C., 24 or 48 hours
# [2] = test system: Shigella dysenteriae Shiga; assay: microbe, parasite or virus in culture; format: cell-based
# [3] = test system: Staphylococcus salivarius; assay: Antimicrobial spectrum, MIC (Table 4); format: cell-based; details: 1% glucose nutrient agar, 37° C., 24 or 48 hours
# Mycobacterium avium = assay: Antimicrobial spectrum, MIC (Table 4); format: cell-based; details: 3% glycerol nutrient agar for acid-fast bacteria, 37° C., 24 or 48 hours
# Pseudomonas aeruginosa = assay: Antimicrobial spectrum, MIC (Table 4); format: cell-based; details: 1% glucose nutrient agar, 37° C., 24 or 48 hours
# Rhodotorula glutinis = assay: Antimicrobial spectrum, MIC (Table 4)
# Mycobacterium phlei = assay: Antimicrobial spectrum, MIC (Table 4); format: cell-based; details: 3% glycerol nutrient agar for acid-fast bacteria, 37° C., 24 or 48 hours
# [4] = test system: Trichophyton mentagrophytes; assay: Antimicrobial spectrum, MIC (Table 4)
# Nocardia asteroides = assay: Antimicrobial spectrum, MIC (Table 4); format: cell-based; details: 37° C., 24 or 48 hours
# Streptococcus pyogenes = assay: Antimicrobial spectrum, MIC (Table 4); format: cell-based; details: blood agar, 37° C., 24 or 48 hours
# Serratia marcescens = assay: Antimicrobial spectrum, MIC (Table 4); format: cell-based; details: 1% glucose nutrient agar, 37° C., 24 or 48 hours
# [5] = test system: Staphylococcus aureus Smith; assay: Antimicrobial spectrum, MIC (Table 4); format: cell-based; details: 1% glucose nutrient agar, 37° C., 24 or 48 hours
# Aspergillus niger = assay: Antimicrobial spectrum, MIC (Table 4)
# Candida albicans = assay: Antimicrobial spectrum, MIC (Table 4)
# Micrococcus luteus = assay: Antimicrobial spectrum, MIC (Table 4); format: cell-based; details: 1% glucose nutrient agar, 37° C., 24 or 48 hours
# Aspergillus oryzae = assay: Antimicrobial spectrum, MIC (Table 4)
# Streptococcus faecalis = assay: Antimicrobial spectrum, MIC (Table 4); format: cell-based; details: 1% glucose nutrient agar, 37° C., 24 or 48 hours
# Bacillus subtilis = assay: Antimicrobial spectrum, MIC (Table 4); format: cell-based; details: 1% glucose nutrient agar, 37° C., 24 or 48 hours
# Corynebacterium xerosis = assay: Antimicrobial spectrum, MIC (Table 4); format: cell-based; details: 1% glucose nutrient agar, 37° C., 24 or 48 hours
# Salmonella typhimurium = assay: Antimicrobial spectrum, MIC (Table 4); format: cell-based; details: 1% glucose nutrient agar, 37° C., 24 or 48 hours
# Klebsiella pneumoniae = assay: Antimicrobial spectrum, MIC (Table 4); format: cell-based; details: 1% glucose nutrient agar, 37° C., 24 or 48 hours
# Staphylococcus albus = assay: Antimicrobial spectrum, MIC (Table 4); format: cell-based; details: 1% glucose nutrient agar, 37° C., 24 or 48 hours
# [6] = test system: Streptococcus pyogenes 090R; assay: Antimicrobial spectrum, MIC (Table 4); format: cell-based; details: blood agar, 37° C., 24 or 48 hours
# Saccharomyces cerevisiae = assay: Antimicrobial spectrum, MIC (Table 4)
# Mycobacterium sp. 607 = assay: Antimicrobial spectrum, MIC (Table 4); format: cell-based; details: 3% glycerol nutrient agar for acid-fast bacteria, 37° C., 24 or 48 hours
# [7] = test system: Staphylococcus aureus 209P; assay: Antimicrobial spectrum, MIC (Table 4); format: cell-based; details: 1% glucose nutrient agar, 37° C., 24 or 48 hours
# Brucella abortus = assay: microbe, parasite or virus in culture; format: cell-based
# Escherichia coli = assay: Antimicrobial spectrum, MIC (Table 4); format: cell-based; details: 1% glucose nutrient agar, 37° C., 24 or 48 hours
# Penicillium glaucum = assay: Antimicrobial spectrum, MIC (Table 4)
# Mucor mucedo = assay: Antimicrobial spectrum, MIC (Table 4)
# in vivo = details: mouse, ip
# [8] = Sabouraud.dextrose.agar, 27° C., 48 hours
structure (smiles),measurement,setting,value
COC1=C(C)C(=O)C2=C(C1=O)C1C3CC4=C(C(=O)C(OC)=C(C)C4=O)C(CNC(=O)C(C)=O)N3CC(C2)N1C (stereo not drawn) [saframycin B],MIC,"[1]; Corynebacterium, read-out: MIC",0.4 µg/mL
same,MIC,"Bacillus cereus; Bacillus cereus, read-out: MIC",100 µg/mL
same,MIC,"Staphylococcus citreus; Staphylococcus, read-out: MIC",12.5 µg/mL
same,MIC,[2]; Shigella dysenteriae,> 100 µg/mL
same,MIC,"[3]; Staphylococcus, read-out: MIC",100 µg/mL
same,MIC,"Mycobacterium avium; Mycobacterium avium, read-out: MIC",100 µg/mL
same,MIC,"Pseudomonas aeruginosa; Pseudomonas aeruginosa, read-out: MIC",> 100 µg/mL
same,MIC,"Rhodotorula glutinis; Rhodotorula glutinis, 48 h",> 100 µg/mL
same,MIC,"Mycobacterium phlei; Mycolicibacterium phlei, read-out: MIC",50 µg/mL
same,MIC,"[4]; Trichophyton mentagrophytes, 72 h",> 100 µg/mL
same,MIC,"Nocardia asteroides; Nocardia asteroides, read-out: MIC",50 µg/mL
same,MIC,"Streptococcus pyogenes; Streptococcus pyogenes, read-out: MIC",12.5 µg/mL
same,MIC,"Serratia marcescens; Serratia marcescens, read-out: MIC",> 100 µg/mL
same,MIC,"[5]; Staphylococcus aureus, read-out: MIC",1.56 µg/mL
same,MIC,"Aspergillus niger; Aspergillus niger, 48 h",> 100 µg/mL
same,MIC,"Candida albicans; Candida albicans, 48 h",> 100 µg/mL
same,MIC,"Micrococcus luteus; Micrococcus luteus, read-out: MIC",1.56 µg/mL
same,MIC,"Aspergillus oryzae; Aspergillus oryzae, 48 h",> 100 µg/mL
same,MIC,"Streptococcus faecalis; Enterococcus faecalis, read-out: MIC",> 100 µg/mL
same,MIC,"Bacillus subtilis; Bacillus subtilis, read-out: MIC",25 µg/mL
same,MIC,"Corynebacterium xerosis; Corynebacterium xerosis, read-out: MIC",12.5 µg/mL
same,MIC,"Salmonella typhimurium; Salmonella enterica, TYPHIMURIUM, read-out: MIC",> 100 µg/mL
same,MIC,"Klebsiella pneumoniae; Klebsiella pneumoniae, read-out: MIC",12.5 µg/mL
same,MIC,"Staphylococcus albus; Staphylococcus, read-out: MIC",12.5 µg/mL
same,MIC,"[6]; Streptococcus pyogenes, 090R, read-out: MIC",25 µg/mL
same,MIC,"Saccharomyces cerevisiae; Saccharomyces cerevisiae, 48 h",> 100 µg/mL
same,MIC,"Mycobacterium sp. 607; Mycobacterium, SP.607, read-out: MIC",100 µg/mL
same,MIC,"[7]; Staphylococcus aureus, 209P, read-out: MIC",12.5 µg/mL
same,MIC,Brucella abortus; Brucella abortus,50 µg/mL
same,MIC,"Escherichia coli; Escherichia coli, read-out: MIC",> 100 µg/mL
same,MIC,"Penicillium glaucum; Penicillium, 48 h",> 100 µg/mL
same,MIC,"Mucor mucedo; Mucor mucedo, 48 h",> 100 µg/mL
same,MTD,in vivo,250 mg/kg
COC1=C(C)C(=O)C2=C(C1=O)[C@H](CNC(=O)C(C)=O)N1C[C@@H]3[C@@H](O)c4c(O)c(C)c(OC)c(O)c4[C@H]([C@@H]1C2)N3C [saframycin E],MIC,[1],100.0 µg/mL
same,MIC,Bacillus cereus,25.0 µg/mL
same,MIC,Staphylococcus citreus,100.0 µg/mL
same,MIC,"[2]; 1% glucose nutrient agar, 37° C., 24 or 48 hours",> 100.0 µg/mL
same,MIC,[3],100.0 µg/mL
same,MIC,Mycobacterium avium,100.0 µg/mL
same,MIC,Pseudomonas aeruginosa,> 100.0 µg/mL
same,MIC,Rhodotorula glutinis; [8],> 100.0 µg/mL
same,MIC,Mycobacterium phlei,25.0 µg/mL
same,MIC,"[4]; Sabouraud.dextrose.agar, 27° C., 72 hours",> 100.0 µg/mL
same,MIC,Nocardia asteroides,25.0 µg/mL
same,MIC,Streptococcus pyogenes,> 100.0 µg/mL
same,MIC,Serratia marcescens,> 100.0 µg/mL
same,MIC,[5],50.0 µg/mL
same,MIC,Aspergillus niger; [8],> 100.0 µg/mL
same,MIC,Candida albicans; [8],> 100.0 µg/mL
same,MIC,Micrococcus luteus,12.5 µg/mL
same,MIC,Aspergillus oryzae; [8],> 100.0 µg/mL
same,MIC,Streptococcus faecalis,> 100.0 µg/mL
same,MIC,Bacillus subtilis,100.0 µg/mL
same,MIC,Corynebacterium xerosis,25.0 µg/mL
same,MIC,Salmonella typhimurium,> 100.0 µg/mL
same,MIC,Klebsiella pneumoniae,50.0 µg/mL
same,MIC,Staphylococcus albus,100.0 µg/mL
same,MIC,[6],25.0 µg/mL
same,MIC,Saccharomyces cerevisiae; [8],> 100.0 µg/mL
same,Solubility,Solubility; acetone,Sparingly soluble
same,Solubility,Solubility; chloroform,Sparingly soluble
same,Solubility,Solubility; esters,Sparingly soluble
same,Solubility,Solubility; lower alcohols,Easily soluble
same,Solubility,Solubility; n-hexane,Insoluble
same,Solubility,Solubility; pyridine,Easily soluble
same,Solubility,Solubility; water,Insoluble
same,MIC,Mycobacterium sp. 607,100.0 µg/mL
same,MIC,[7],100.0 µg/mL
same,MIC,"Brucella abortus; blood agar, 37° C., 24 or 48 hours",25.0 µg/mL
same,MIC,Escherichia coli,> 100.0 µg/mL
same,MIC,Penicillium glaucum; [8],> 100.0 µg/mL
same,MIC,Mucor mucedo; [8],> 100.0 µg/mL
